Assay [1] deals with T1, hGCGR (Homo sapiens, UniProt P47871).
T1 construct: expressed in transfected cells
Nature of the assay: Functional cAMP formation (HTRF) in HEK-293 clonal cells expressing hGCGR, 0.1% bovine casein, without or with 1.0% human serum albumin. It counts as cell-based. In short, it runs like this: (§1)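 Readings of the HTRF 665/620 nm ratio, which falls as cAMP rises, were converted to nM cAMP using a standard curve after 30 min peptide exposure at 37° C.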

For assay [2], the target named is hGLP-1R (Homo sapiens, UniProt P43220). The experiment in a line: Functional cAMP formation (HTRF) in HEK-293 clonal cells expressing hGLP-1R, 0.1% bovine casein, without or with 1.0% human serum albumin. It counts as cell-based. Details: expressed in transfected cells. The following applies: for Emax: percent of maximal response to GLP-1(7-36)NH2. The essentials:
as §1

Assay [3] deals with T2, human GLP-1 receptor (hGLP-1R) (Homo sapiens, UniProt P43220).
T2 construct: expressed in transfected cells; crude membranes
T2 sequence (P43220 24-463): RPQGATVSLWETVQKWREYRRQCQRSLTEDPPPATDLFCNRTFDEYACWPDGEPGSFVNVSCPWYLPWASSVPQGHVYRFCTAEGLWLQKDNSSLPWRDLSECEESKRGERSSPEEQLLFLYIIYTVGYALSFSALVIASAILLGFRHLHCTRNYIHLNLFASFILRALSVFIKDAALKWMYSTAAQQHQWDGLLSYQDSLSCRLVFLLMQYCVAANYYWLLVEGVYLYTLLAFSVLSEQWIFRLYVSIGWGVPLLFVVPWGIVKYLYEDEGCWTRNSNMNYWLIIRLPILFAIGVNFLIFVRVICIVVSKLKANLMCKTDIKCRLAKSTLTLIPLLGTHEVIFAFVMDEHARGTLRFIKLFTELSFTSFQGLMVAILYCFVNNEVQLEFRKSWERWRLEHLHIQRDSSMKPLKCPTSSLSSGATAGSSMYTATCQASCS
Nature of the assay: [125I]-GLP-1 binding, SPA with membranes of HEK293 cells expressing hGLP-1R.

The target in assay [4] is T3, hGIPR (Homo sapiens, UniProt P48546).
T3 construct: expressed in transfected cells
T3 sequence (P48546 22-466): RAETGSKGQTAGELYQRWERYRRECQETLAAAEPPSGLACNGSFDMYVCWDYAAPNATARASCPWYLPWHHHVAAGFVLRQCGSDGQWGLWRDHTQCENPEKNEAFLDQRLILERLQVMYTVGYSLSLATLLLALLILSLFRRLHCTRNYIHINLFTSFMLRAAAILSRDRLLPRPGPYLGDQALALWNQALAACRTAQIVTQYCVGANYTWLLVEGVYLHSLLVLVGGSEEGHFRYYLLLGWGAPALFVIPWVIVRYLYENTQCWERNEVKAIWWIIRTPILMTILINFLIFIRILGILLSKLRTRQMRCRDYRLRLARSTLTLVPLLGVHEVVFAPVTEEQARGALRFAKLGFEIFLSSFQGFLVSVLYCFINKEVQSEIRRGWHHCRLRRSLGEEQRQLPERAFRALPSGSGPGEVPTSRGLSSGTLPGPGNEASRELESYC
The experiment in a line: Functional cAMP formation (HTRF) in HEK-293 clonal cells expressing hGIPR, 0.1% bovine casein, without or with 1.0% human serum albumin. It counts as cell-based. The following applies: for Emax: percent of maximal response to GIP(1-42)NH2; for EC50: geometric mean. In short, it runs like this: as §1

Assay [5] has as its target T4, human GIP receptor (hGIPR) (Homo sapiens, UniProt P48546).
T4 construct: expressed in transfected cells; crude membranes
T4 sequence (P48546 22-466): T3 sequence (P48546 22-466)
Nature of the assay: [125I]-GIP binding, SPA with membranes of CHO cells expressing hGIPR.

[6] abbreviates: 0.1% bovine casein and 1.0% human serum albumin, 37° C., geometric mean, read-out: hGCGR EC50, nM (SEM, n).
Where [7] appears, read: cAMP, 37° C., 0.1% bovine casein (no human serum albumin), geometric mean, read-out: hGCGR EC50, nM (SEM, n).
[8] abbreviates: cAMP, 37° C., 0.1% bovine casein (no human serum albumin), geometric mean, read-out: hGLP-1R EC50, nM (SEM, n).
Setting [9] is: human GLP-1R, geometric mean (SEM, n), read-out: Binding Affinity Ki, nM (SEM, n) hGLP-1R.
Setting [10] is: HEK293, 0.1% bovine casein and 1.0% human serum albumin, 37° C., read-out: hGIPR Emax, % ± SEM.
Setting [11] is: cAMP, 37° C., 0.1% bovine casein (no human serum albumin), read-out: hGIPR EC50, nM (SEM, n).
Where [12] appears, read: human GIPR, geometric mean (SEM, n), read-out: Binding Affinity Ki, nM (SEM, n) hGIPR.
[13] abbreviates: 0.1% bovine casein and 1.0% human serum albumin, 37° C., geometric mean, read-out: hGLP-1R EC50, nM (SEM, n).

SMILES strings stand for the structures. Where two headings read alike, the source gives them in different places.

T1 sequence (P47871 26-477): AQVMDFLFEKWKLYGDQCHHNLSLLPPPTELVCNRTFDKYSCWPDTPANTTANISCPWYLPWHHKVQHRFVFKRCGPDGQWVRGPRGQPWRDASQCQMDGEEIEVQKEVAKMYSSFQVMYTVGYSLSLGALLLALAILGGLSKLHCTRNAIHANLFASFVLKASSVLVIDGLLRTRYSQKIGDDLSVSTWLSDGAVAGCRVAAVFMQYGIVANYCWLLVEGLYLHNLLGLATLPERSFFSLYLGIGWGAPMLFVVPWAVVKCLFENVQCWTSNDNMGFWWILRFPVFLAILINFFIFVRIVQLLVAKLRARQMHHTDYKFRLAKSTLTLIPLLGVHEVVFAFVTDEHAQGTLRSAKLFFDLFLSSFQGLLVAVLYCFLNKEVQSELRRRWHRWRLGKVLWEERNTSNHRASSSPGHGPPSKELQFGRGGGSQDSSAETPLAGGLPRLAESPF
Chain of hGLP-1R (P43220 24-463): as the sequence (P43220 24-463) above

On to `CCCCCCCCCCCC(=O)N[C@@H](CCC(=O)NCCOCCOCC(=O)NCCOCCOCC(=O)NCCCC[C@H](NC(=O)[C@H](CCCN)NC(=O)[C@H](CC(=O)O)NC(=O)[C@H](CC(C)C)NC(=O)[C@](C)(CC(C)C)NC(=O)[C@@H](NC(=O)C(C)(C)NC(=O)[C@H](Cc1ccncc1)NC(=O)[C@H](CC(=O)O)NC(=O)[C@H](CO)NC(=O)[C@@H](NC(=O)[C@](C)(Cc1ccccc1F)NC(=O)[C@@H](NC(=O)CNC(=O)[C@H](CCC(=O)O)NC(=O)C(C)(C)NC(=O)[C@@H](N)Cc1ccc(O)cc1)[C@@H](C)O)[C@@H](C)O)[C@@H](C)CC)C(=O)N[C@@H](C)C(=O)N[C@@H](CCC(N)=O)C(=O)NC(C)(C)C(=O)N[C@@H](CCCCNC(=O)COCCOCCNC(=O)COCCOCCNC(=O)CC[C@H](NC(=O)CCCCCCCCCCC)C(=O)O)C(=O)N[C@@H](Cc1ccccc1)C(=O)N[C@H](C(=O)N[C@H](CCC(=O)O)C(=O)N[C@@](C)(Cc1ccc(O)cc1)C(=O)N[C@@H](CC(C)C)C(=O)N[C@H](C(=O)N[C@@H](CCC(=O)O)C(=O)NCC(=O)NCC(=O)N1CCC[C@H]1C(=O)N[C@@H](CO)C(=O)N[C@@H](CO)C(=O)NCC(=O)N[C@@H](C)C(=O)N1CCC[C@H]1C(=O)N1CCC[C@H]1C(=O)N1CCC[C@H]1C(=O)N[C@@H](CO)C(N)=O)[C@@H](C)CC)[C@@H](C)CC)C(=O)O` [Example 322], for which the concentration giving a half-maximal response (EC50) in assay [1] (setting [6]) is over 9950 nM; in assay [1] (setting [7]), over 9950 nM; in assay [2] (setting [8]), 0.144 nM; in assay [4] (setting [11]), 0.00937 nM. Also, the Emax stood at 94.5% in assay [2] (HEK293, 0.1% bovine casein and 1.0% human serum albumin, 37° C., read-out: hGLP-1R Emax, % ± SEM); 100% in assay [2] (HEK293, cAMP, 37° C., 0.1% bovine casein, arithmetic mean, read-out: hGLP-1R Emax, % ± SEM); 89.7% in assay [4] (setting [10]). Moreover, the values for the inhibition constant Ki in assay [3] (setting [9]) and in assay [5] (setting [12]) were 0.234 nM and 0.0162 nM, respectively.

As for `CCCCCCCCCCCCCCCC(=O)N[C@@H](CCC(=O)NCCOCCOCC(=O)NCCCC[C@H](NC(=O)CNC(=O)CNC(=O)[C@H](CCC(=O)O)NC(=O)[C@@H](NC(=O)[C@H](CC(C)C)NC(=O)[C@](C)(Cc1ccc(O)cc1)NC(=O)[C@@H](CCC(=O)O)NC(=O)[C@@H](NC(=O)[C@H](Cc1ccccc1)NC(=O)[C@H](CCC(=O)O)NC(=O)C(C)(C)NC(=O)[C@H](CCC(N)=O)NC(=O)[C@H](C)NC(=O)[C@H](CCCCNC(=O)COCCOCCNC(=O)CC[C@H](NC(=O)CCCCCCCCCCCCCCC)C(=O)O)NC(=O)[C@H](CCCN)NC(=O)[C@H](CC(=O)O)NC(=O)[C@H](CC(C)C)NC(=O)[C@](C)(CC(C)C)NC(=O)[C@@H](NC(=O)[C@H](CO)NC(=O)[C@H](Cc1ccncc1)NC(=O)[C@H](CC(=O)O)NC(=O)[C@H](CO)NC(=O)[C@@H](NC(=O)[C@](C)(Cc1ccccc1F)NC(=O)[C@@H](NC(=O)CNC(=O)[C@H](CCC(=O)O)NC(=O)C(C)(C)NC(=O)[C@@H](N)Cc1ccc(O)cc1)[C@@H](C)O)[C@@H](C)O)[C@@H](C)CC)[C@@H](C)CC)[C@@H](C)CC)C(=O)N[C@@H](CO)C(=O)N[C@@H](CO)C(=O)NCC(=O)N[C@@H](C)C(=O)N1CCC[C@H]1C(=O)N1CCC[C@H]1C(=O)N1CCC[C@H]1C(=O)N[C@@H](CO)C(N)=O)C(=O)O` [Example 13], the EC50 in assay [1] (setting [6]) is over 9950 nM; in assay [1] (cAMP, incubated at 37° C., 0.1% bovine casein (no human serum albumin), geometric mean, read-out: hGCGR EC50, nM (SEM, n)), over 9950 nM; in assay [2] (setting [13]), 6.79 nM; in assay [4] (0.1% bovine casein and 1.0% human serum albumin, 37° C., read-out: hGIPR EC50, nM (SEM, n)) it was 1.45 nM. For the same compound, the inhibition constant (Ki) came out at 0.691 nM in assay [3] (setting [9]) and 0.0575 nM in assay [5] (setting [12]).

With `CCCCCCCCCCCC(=O)N[C@@H](CCC(=O)NCCOCCOCC(=O)NCCOCCOCC(=O)NCCCC[C@H](NC(=O)[C@H](CCCN)NC(=O)[C@H](CC(=O)O)NC(=O)[C@H](CC(C)C)NC(=O)[C@](C)(CC(C)C)NC(=O)[C@@H](NC(=O)C(C)(C)NC(=O)[C@H](CCCCNC(=O)COCCOCCNC(=O)COCCOCCNC(=O)CC[C@H](NC(=O)CCCCCCCCCCC)C(=O)O)NC(=O)[C@H](CC(=O)O)NC(=O)[C@H](CO)NC(=O)[C@@H](NC(=O)[C@](C)(Cc1ccccc1F)NC(=O)[C@@H](NC(=O)CNC(=O)[C@H](CCC(=O)O)NC(=O)C(C)(C)NC(=O)[C@@H](N)Cc1ccc(O)cc1)[C@@H](C)O)[C@@H](C)O)[C@@H](C)CC)C(=O)N[C@@H](C)C(=O)N[C@@H](CCC(N)=O)C(=O)NC(C)(C)C(=O)N[C@@H](CCC(=O)O)C(=O)N[C@@H](Cc1ccccc1)C(=O)N[C@H](C(=O)N[C@H](CCC(=O)O)C(=O)N[C@@](C)(Cc1ccc(O)cc1)C(=O)N[C@@H](CC(C)C)C(=O)N[C@H](C(=O)N[C@@H](CCC(=O)O)C(=O)NCC(=O)NCC(=O)N1CCC[C@H]1C(=O)N[C@@H](CO)C(=O)N[C@@H](CO)C(=O)NCC(=O)N[C@@H](C)C(=O)N1CCC[C@H]1C(=O)N1CCC[C@H]1C(=O)N1CCC[C@H]1C(=O)N[C@@H](CO)C(N)=O)[C@@H](C)CC)[C@@H](C)CC)C(=O)O` [Example 292], the EC50 in assay [1] (setting [6]) is over 9950 nM; in assay [1] (setting [7]) it was over 9950 nM; in assay [2] (setting [13]), 4.35 nM; in assay [2] (setting [8]), 0.0758 nM; in assay [4] (setting [11]) it was 0.0062 nM. The Ki in assay [3] (setting [9]) stood at 0.289 nM; in assay [5] (setting [12]), 0.0161 nM. Also, the Emax in assay [4] (setting [10]) turned out to be 88.4%.

Consider `CC[C@H](C)[C@H](NC(=O)[C@H](CC(C)C)NC(=O)[C@](C)(Cc1ccc(O)cc1)NC(=O)[C@H](CCCCNC(=O)COCCOCCNC(=O)CCCCCNC(=O)CC[C@H](NC(=O)CCCCCCCCCOc1ccc(C(=O)O)cc1)C(=O)O)NC(=O)[C@@H](NC(=O)[C@H](Cc1ccccc1)NC(=O)[C@H](CCCN)NC(=O)C(C)(C)NC(=O)[C@H](CCC(N)=O)NC(=O)[C@H](C)NC(=O)[C@H](CCC(N)=O)NC(=O)[C@H](CCCN)NC(=O)[C@H](CC(=O)O)NC(=O)[C@H](CC(C)C)NC(=O)[C@](C)(CC(C)C)NC(=O)[C@@H](NC(=O)C(C)(C)NC(=O)[C@H](Cc1ccncc1)NC(=O)[C@H](CC(=O)O)NC(=O)[C@H](CO)NC(=O)[C@@H](NC(=O)[C@](C)(Cc1ccccc1F)NC(=O)[C@@H](NC(=O)CNC(=O)[C@H](CCC(=O)O)NC(=O)C(C)(C)NC(=O)[C@@H](N)Cc1ccc(O)cc1)[C@@H](C)O)[C@@H](C)O)[C@@H](C)CC)[C@@H](C)CC)C(=O)N[C@@H](CCCCNC(=O)COCCOCCNC(=O)CCCCCNC(=O)CC[C@H](NC(=O)CCCCCCCCCOc1ccc(C(=O)O)cc1)C(=O)O)C(=O)NCC(=O)NCC(=O)N1CCC[C@H]1C(=O)N[C@@H](CO)C(=O)N[C@@H](CO)C(=O)NCC(=O)N[C@@H](C)C(=O)N1CCC[C@H]1C(=O)N1CCC[C@H]1C(=O)N1CCC[C@H]1C(=O)N[C@@H](CO)C(N)=O` [Example 453], for which the EC50 in assay [1] (hGCGR EC50, nM (SEM, n), cAMP, 37° C., 0.1% bovine casein (no human serum albumin), geometric mean) is over 9950 nM; in assay [1] (hGCGR EC50, nM (SEM, n), cAMP, 37° C., 0.1% bovine casein and 1.0% human serum albumin, geometric mean (SEM, n)), over 9950 nM; in assay [2] (hGLP-1R EC50, nM (SEM, n), cAMP, 37° C., 0.1% bovine casein (no human serum albumin), geometric mean), 0.2 nM; in assay [2] (hGLP-1R EC50, nM (SEM, n), cAMP, 37° C., 0.1% bovine casein and 1.0% human serum albumin, geometric mean (SEM, n)) it was 5.47 nM; in assay [4] (hGIPR EC50, nM (SEM, n), cAMP, 37° C., 0.1% bovine casein (no human serum albumin)), 0.0139 nM. For the same compound, the Emax turned out to be 116% in assay [2] (HEK293, read-out: hGLP-1R Emax, % ± SEM, cAMP, 37° C., 0.1% bovine casein, arithmetic mean); 92% in assay [4] (HEK293, read-out: hGIPR Emax, % ± SEM, cAMP, 37° C., 0.1% bovine casein and 1.0% human serum albumin). Also, the values for the Ki in assay [3] and in assay [5] were 0.123 nM and 0.013 nM, respectively.

For the origin of these results see patent US20230265151A1, “GIP/GLP1 CO-AGONIST COMPOUNDS” (priority 2020, published 2023).
